Holding throughout (format): in vivo
For assay [1], the system named is mice. Kind of assay: 2-phenyl-1,4-benzoquinone-induced writhing test in mice (analgesic activity). The conditions noted are these: Mus musculus, sc, read-out: Phenylquinone Writhing ED50. The text has this: Compounds of the present invention are also useful as analgesic agents due to their ability to alleviate pain in mammals. […] Exptl. Biol. Med., 95,729 (1957)]

The subject of assay [2] is mice. Nature of the assay: Climbing mice assay (antipsychotic activity, apomorphine-induced climbing). The note with it: Mus musculus; ip, 30 minutes prior to apomorphine 1.5 mg/kg s.c.; CK-1 male mice. How it is done:
Antipsychotic activity is determined in the climbing mice assay by methods similar to those described by P. Protais, et al., Psychopharmacol., 50, 1 (1976) and B. Costall, Eur. J. Pharmacol., 50, 39, (1978).
The subject CK-1 male mice (23-27 grams) are group-housed under standard laboratory conditions. The mice are individually placed in wire mesh stick cages (4'×4" by 10") and are allowed one hour for adaptation and exploration of the new environment. Then apomorphine is injected subcutaneously at 1.5 mg/kg, a dose causing climbing in all subjects for 30 minutes. Compounds to be tested for antipsychotic activity are injected intraperitoneally 30 minutes prior to the apomorphine challenge at a screening dose of 10 mg/kg.
For evaluation of climbing, 3 readings are taken at 10, 20 and 30 minutes after apomorphine administration according to the following scale:
4 paws on bottom (no climbing)
2 paws on the wall (rearing)
4 paws on the wall (full climb)
Mice consistently climbing before the injection of apomorphine are discarded.
With full-developed apomorphine climbing, the animals are hanging onto the cage walls, rather motionless, over longer periods of time. By constrast, climbs due to mere motor stimulation usually last only a few seconds.
The climbing scores are individually totaled (maximum score: 6 per mouse over 3 readings) and the total score of the control group (vehicle intraperitoneally; apomorphine subcutaneously) is set to 100%. ED50 values with 95% confidence limits, calculated by a linear regression analysis of some of the compounds of this invention are presented in Table 1.

For assay [3], the system named is rats. Nature of the assay: Geller-conflict paradigm with rats (anxiolytic activity). The note with it: 10 mg/kg i.p.; pretreat interval usually one-half hour; male rats. The text has this: Compounds I of the present invention are also useful as anxiolytic agents. […] See Geller, Irving and Seifter, Psychopharmacologia Col. 1, 482-492 (1962). Male rats are used as test subjects. They are housed individually and food and water are available ad libitum until they are 300 to 400 grams prior to the start of training. Subsequently they are food deprived until their body weight is reduced to approximately 80% of original and it is maintained at this level by a restricted food diet.
The programming and test equipment consists of solid state devices, shockers and cages within sound-attentuated environmental enclosures. The data is recorded on both solid state print-out counters and cumulative recorders. The cages are equipped with a house-light, a single-lever, cue-lights, a liquid dipper, a speaker and a grid-floor connected to a shocker. Sweetened condensed milk delivered by the liquid-dipper serve as the positive reinforcement for all subjects.
The subjects are trained to lever-press for the milk reward in two distinct response-reward sections. In the anxiety or "conflict" segment, signaled by onset of both tone and cue-lights, a dipper of milk is delivered in response to each lever-press (CRF schedule of reinforcement). However lever presses during this period are also accompanied by a 40 m sec pulse of aversive footshock through the grid-floor. […]

SMILES strings stand for the structures. Where a name gives a salt, the structure may show the parent alone.

For `COc1ccccc1N1CCN(CCCON2C(=O)CC3(CCCC3)CC2=O)CC1` [8-[3-[4-(2-Methoxyphenyl)-1-piperazinyl-propyloxy]-8-azaspiro[4.5]decan-7,9-dione hydrochloride hemihydrate], in assay [1], the median effective dose (ED50) (usually the dose at which the effect has come halfway, by size or by number of responders) was determined as 1.1 mg/kg.

`COc1cccc(N2CCN(CCCON3C(=O)CC4(CCCC4)CC3=O)CC2)c1` [Example 8, 8-[3-[4-(3-Methoxyphenyl)-1-piperazinyl]propyloxy]-8-azaspiro-[4.5]decan-7,9-dione hydrochloride hemihydrate] had an ED50 in assay [2] of 10.9 mg/kg.

`CN1CCN(C2=Nc3cc(Cl)ccc3Nc3ccccc32)CC1` [Clazapine, reference compound] had an ED50 in assay [2] of 8.1 mg/kg.

As for `CNC1=Nc2ccc(Cl)cc2C(c2ccccc2)=[N+]([O-])C1` [Chlorodiazepoxide, reference compound], the “Geller CRF ratio” value in assay [3] stood at 3.6.

In the case of `CC(C)=CCN1CCC2(C)c3cc(O)ccc3CC1C2C` (centres unmarked) [Pentazocine, reference compound], in assay [1], the ED50 was 1.3 mg/kg.

For `O=C1CC2(CCCC2)CC(=O)N1OCCCN1CCN(c2nsc3ccccc23)CC1` [Example 11, 8-[3-[4-(1,2-Benzisothiazol-3-yl)-1-piperazinyl]propyloxy]-8-azaspiro[4.5]decan-7,9-dione hydrochloride hemihydrate], the ED50 in assay [1] is 0.9 mg/kg; in assay [2], 5.7 mg/kg.

In the case of `Cc1cccc(N2CCN(CCCON3C(=O)CC4(CCCC4)CC3=O)CC2)c1` [Example 5, 8-[3-[4-(3-Methylphenyl)-1-piperazinyl]propyloxy]-8-azaspiro[4.5]decan-7,9-dione hydrochloride hemihydrate], in assay [3], the “Geller CRF ratio” value is recorded as 7.5.

The values are drawn from patent US4780466A, “Arylpiperazinylalkoxy derivatives of cyclic imides” (Hoechst-Roussel Pharmaceuticals, Inc., priority 1988, dated 1988).
